The source of these data is patent USRE37839E1, “O-benzyloxime ethers and crop protection agents containing these compounds” (BASF Aktiengesellschaft, priority 1990, dated 2002).

Data set [1] relates to Plutella maculipennis (diamondback moth). Briefly: Plutella maculipennis (diamondback moth); ingestion-inhibiting action. Format: in vivo. The conditions noted are these: Plutella maculipennis 4th-stage caterpillars on dipped kohlrabi leaves, after 48 hours. The method, then:
Young kohlrabi leaves are dipped for 3 seconds into aqueous solutions of the candidate compounds, and then placed on a round filter paper 9 cm in diameter which has been moistened with 0.5 ml of water. The filter paper is then placed in a Petri dish 10 cm in diameter. 10 caterpillars in the 4th larval stage are then placed on each leaf and the Petri dish is closed. Ingestion inhibition is determined in % after 48 hours.

Data set [2] relates to Musca domestica (housefly). Kind of data set: Musca domestica (housefly); continuous contact action. Format: in vivo. The conditions noted are these: continuous contact in Petri dish, counted after 24 hours, application rate 0.1 ppm. The method, then:
Both the tops and bottoms of Petri dishes 10 cm in diameter were lined with a total of 1 ml of acetonic solutions of the active ingredients. After the solvent had evaporated (about 30 mins.), 10 files and absorbent cotton steeped in water were introduced into each dish and the dishes closed. The flies in supine position were counted after 24 hours.
If a kill rate of 80 to 100% occurs at a concentration of 0.01 mg/dish, the test is continued with falling concentrations.

Regarding `COC=C(C(=O)OC)c1ccccc1CON=C(C)c1cccc(C(F)(F)F)c1` [compound 705], the Mortality in % in data set [1] (application rate 400 ppm) was determined as 80%; in data set [2] it was 100%.
Turning to `COC=C(C(=O)OC)c1ccccc1CON=C(C)c1ccc(Br)cc1` [compound 593], the Mortality in % in data set [1] (application rate 1000 ppm) is recorded as 80%; in data set [2] it was 60%.
